Measured values as given in PMC10091362 (Lab on a Chip, 2023).

B1: horseradish peroxidase (Armoracia rusticana) (protein)
chain: QLTPTFYDNSCPNVSNIVRDTIVNELRSDPRIAASILRLHFHDCFVNGCDASILLDNTTSFRTEKDAFGNANSARGFPVIDRMKAAVESACPRTVSCADLLTIAAQQSVTLAGGPSWRVPLGRRDSLQAFLDLANANLPAPFFTLPQLKDSFRNVGLNRSSDLVALSGGHTFGKNQCRFIMDRLYNFSNTGLPDPTLNTTYLQTLRGLCPLNGNLSALVDFDLRTPTIFDNKYYVNLEEQKGLIQSDQELFSSPNATDTIPLVRSFANSTQTFFNAFVEAMDRMGNITPLTGTQGQIRLNCRVVNSNS

Assays:
beta-galactosidase = beta-galactosidase (Escherichia coli, UniProt P00722); assay: droplet microfluidic steady-state Michaelis–Menten kinetics; format: biochemical
purified protein = substrate: CC(=O)N1c2ccc(O)cc2Oc2cc(O)ccc21; assay: purified protein; details: H2O2 (co-substrate)

Sequence of beta-galactosidase (P00722 2-1024): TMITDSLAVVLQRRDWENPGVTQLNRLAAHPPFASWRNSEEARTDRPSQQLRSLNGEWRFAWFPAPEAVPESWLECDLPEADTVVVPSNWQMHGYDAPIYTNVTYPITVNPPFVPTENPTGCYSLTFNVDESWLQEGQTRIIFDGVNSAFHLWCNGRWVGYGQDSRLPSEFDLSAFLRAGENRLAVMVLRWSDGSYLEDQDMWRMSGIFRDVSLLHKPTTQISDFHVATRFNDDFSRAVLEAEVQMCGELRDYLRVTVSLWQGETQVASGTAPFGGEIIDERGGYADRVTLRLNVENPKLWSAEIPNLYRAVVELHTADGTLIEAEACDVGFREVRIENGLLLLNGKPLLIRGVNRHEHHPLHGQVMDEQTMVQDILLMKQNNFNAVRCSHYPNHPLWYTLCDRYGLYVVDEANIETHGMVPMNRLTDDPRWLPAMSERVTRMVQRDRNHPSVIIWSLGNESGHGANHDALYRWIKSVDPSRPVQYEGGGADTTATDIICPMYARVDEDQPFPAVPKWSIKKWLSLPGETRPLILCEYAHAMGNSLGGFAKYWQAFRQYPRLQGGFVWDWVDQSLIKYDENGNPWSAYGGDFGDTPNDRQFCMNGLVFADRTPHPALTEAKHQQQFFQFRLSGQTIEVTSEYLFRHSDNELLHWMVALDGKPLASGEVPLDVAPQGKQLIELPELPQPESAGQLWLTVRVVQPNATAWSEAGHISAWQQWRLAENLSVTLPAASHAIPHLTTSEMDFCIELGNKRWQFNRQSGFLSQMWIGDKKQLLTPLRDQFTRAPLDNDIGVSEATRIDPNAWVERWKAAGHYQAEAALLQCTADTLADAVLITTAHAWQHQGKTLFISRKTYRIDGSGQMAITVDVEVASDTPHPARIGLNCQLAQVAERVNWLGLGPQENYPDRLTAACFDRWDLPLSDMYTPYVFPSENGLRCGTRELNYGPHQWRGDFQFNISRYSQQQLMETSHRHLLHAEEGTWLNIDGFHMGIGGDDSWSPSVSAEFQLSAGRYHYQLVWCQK

Molecule	Km (beta-galactosidase)	Km (purified protein)
O=C1OC2(c3ccc(O[C@@H]4O[C@H](CO)[C@H](O)[C@H](O)[C@H]4O)cc3Oc3cc(O[C@@H]4O[C@H](CO)[C@H](O)[C@H](O)[C@H]4O)ccc32)c2ccccc21 [Fluorescein di-beta-D-galactopyranoside]	19.8 ± 1.4 µM	–
O=c1ccc2nc3ccc(O[C@@H]4O[C@H](CO)[C@H](O)[C@H](O)[C@H]4O)cc3oc-2c1 [resorufin beta-D-galactopyranoside]	408 ± 140 µM	–
B1	–	20 ± 1.8 µM
